Laboratory results from PubChem BioAssay (NCI).
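96-well plates; 48 h exposure; 5 concentrations. Endpoints by linear interpolation between flanking doses. Not reached: highest tested concentration assigned. TGI: concentration producing complete growth inhibition.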

What was measured:
Experiment in all cases: NCI tumour cell line growth inhibition, 48 h
[1] = tested on: 786-0 renal
[2] = tested on: A498 renal
[3] = tested on: A549 NSCLC
[4] = tested on: ACHN renal
[5] = tested on: CAKI-1 renal
[6] = tested on: CCRF-CEM leukemia
[7] = tested on: COLO 205 colon
[8] = tested on: DLD-1 colon
[9] = tested on: DMS 114 small cell lung
[10] = tested on: EKVX NSCLC
[11] = tested on: HCC-2998 colon
[12] = tested on: HCT-116 colon
[13] = tested on: HCT-15 colon
[14] = tested on: HL-60(TB) leukemia
[15] = tested on: HOP-18 NSCLC
[16] = tested on: HOP-62 NSCLC
[17] = tested on: HOP-92 NSCLC
[18] = tested on: HT29 colon
[19] = tested on: IGROV1 ovarian
[20] = tested on: K-562 leukemia
[21] = tested on: KM12 colon
[22] = tested on: KM20L2 colon
[23] = tested on: LOX IMVI melanoma
[24] = tested on: LXFL 529 NSCLC
[25] = tested on: M14 melanoma
[26] = tested on: M19-MEL melanoma
[27] = tested on: MALME-3M melanoma
[28] = tested on: MOLT-4 leukemia
[29] = tested on: NCI-H226 lung
[30] = tested on: NCI-H23 lung
[31] = tested on: NCI-H460 lung
[32] = tested on: NCI-H522 lung
[33] = tested on: OVCAR-3 ovarian
[34] = tested on: OVCAR-5 ovarian
[35] = tested on: OVCAR-8 ovarian
[36] = tested on: RPMI-8226 leukemia
[37] = tested on: RXF 393 renal
[38] = tested on: RXF-631 renal
[39] = tested on: SF-268 CNS
[40] = tested on: SF-295 CNS
[41] = tested on: SF-539 CNS
[42] = tested on: SK-MEL-28 melanoma
[43] = tested on: SK-MEL-5 melanoma
[44] = tested on: SK-OV-3 ovarian
[45] = tested on: SN12C renal
[46] = tested on: SNB-19 CNS
[47] = tested on: SNB-75 CNS
[48] = tested on: SR leukemia
[49] = tested on: SW-620 colon
[50] = tested on: TK-10 renal
[51] = tested on: U251 CNS
[52] = tested on: UACC-257 melanoma
[53] = tested on: UACC-62 melanoma
[54] = tested on: UO-31 renal
[55] = tested on: XF 498 CNS
[56] = tested on: DMS 273 small cell lung
[57] = tested on: MCF7 breast
[58] = tested on: NCI/ADR-RES ovarian
[59] = tested on: OVCAR-4 ovarian
[60] = tested on: P388 leukemia
[61] = tested on: P388/ADR leukemia
[62] = tested on: SK-MEL-2 melanoma
[63] = tested on: SN12K1 renal
[64] = tested on: SNB-78 CNS

For `COc1ccc(C(=O)CC2=Nc3nnc(CCCCCCCc4nnc5n4C(=O)C(CC(=O)c4ccc(OC)cc4)=N5)n3C2=O)cc1`, the TGI [1] was > 100 µM, the TGI [2] was > 100 µM and the TGI [3] was > 100 µM. The TGI [4] was > 100 µM, the TGI [5] was > 100 µM and the TGI [6] was > 100 µM. For the same compound, the TGI [7] was > 100 µM, the TGI [8] was > 100 µM and the TGI [9] was > 100 µM. For the same compound, the TGI [10] was > 100 µM, the TGI [11] was > 100 µM and the TGI [12] was > 100 µM. For the same compound, the TGI [13] was > 100 µM, the TGI [14] was > 100 µM and the TGI [15] was > 100 µM. For the same compound, the TGI [16] was > 100 µM, the TGI [17] was > 100 µM and the TGI [18] was > 100 µM. For the same compound, the TGI [19] was > 100 µM, the TGI [20] was > 100 µM and the TGI [21] was > 100 µM. For the same compound, the TGI [22] was > 100 µM, the TGI [23] was > 100 µM and the TGI [24] was > 100 µM. The TGI [25] was > 100 µM, the TGI [26] was > 100 µM and the TGI [27] was > 100 µM. The TGI [28] was > 100 µM, the TGI [29] was > 100 µM and the TGI [30] was > 100 µM. For the same compound, the TGI [31] was > 100 µM, the TGI [32] was > 100 µM and the TGI [33] was > 100 µM. For the same compound, the TGI [34] was > 100 µM, the TGI [35] was > 100 µM and the TGI [36] was > 100 µM. For the same compound, the TGI [37] was > 100 µM, the TGI [38] was > 100 µM and the TGI [39] was > 100 µM. For the same compound, the TGI [40] was > 100 µM, the TGI [41] was > 100 µM and the TGI [42] was > 100 µM. For the same compound, the TGI [43] was > 100 µM, the TGI [44] was > 100 µM and the TGI [45] was > 100 µM. For the same compound, the TGI [46] was > 100 µM, the TGI [47] was > 100 µM and the TGI [48] was > 100 µM. For the same compound, the TGI [49] was > 100 µM, the TGI [50] was > 100 µM and the TGI [51] was > 100 µM. For the same compound, the TGI [52] was > 100 µM, the TGI [53] was > 100 µM and the TGI [54] was > 100 µM. The TGI [55] was > 100 µM.
`CNC(=O)SCC(NC(=O)CCC(N)C(=O)O)C(=O)NCC(=O)O` (stereo unspecified) was tested, and the TGI [2] was > 100 µM, the TGI [3] was > 100 µM and the TGI [5] was > 100 µM. The TGI [6] was > 100 µM, the TGI [7] was > 100 µM and the TGI [8] was > 100 µM. For the same compound, the TGI [9] was > 100 µM, the TGI [56] was > 100 µM and the TGI [10] was > 100 µM. For the same compound, the TGI [11] was > 100 µM, the TGI [12] was > 100 µM and the TGI [13] was > 100 µM. The TGI [14] was > 31.6 µM, the TGI [15] was > 100 µM and the TGI [16] was > 100 µM. For the same compound, the TGI [17] was > 100 µM, the TGI [18] was > 100 µM and the TGI [19] was > 100 µM. The TGI [20] was > 100 µM, the TGI [21] was > 100 µM and the TGI [22] was > 100 µM. The TGI [23] was > 100 µM, the TGI [26] was > 100 µM and the TGI [27] was > 100 µM. For the same compound, the TGI [57] was > 100 µM, the TGI [28] was > 100 µM and the TGI [29] was > 100 µM. The TGI [30] was > 100 µM, the TGI [31] was > 100 µM and the TGI [32] was > 100 µM. For the same compound, the TGI [58] was > 100 µM, the TGI [33] was > 100 µM and the TGI [59] was > 100 µM. For the same compound, the TGI [34] was > 100 µM, the TGI [35] was > 100 µM and the TGI [60] was > 100 µM. The TGI [61] was > 100 µM, the TGI [36] was > 100 µM and the TGI [37] was > 100 µM. The TGI [39] was > 100 µM, the TGI [40] was > 100 µM and the TGI [41] was > 100 µM. For the same compound, the TGI [62] was > 100 µM, the TGI [42] was > 100 µM and the TGI [43] was > 100 µM. The TGI [44] was > 100 µM, the TGI [45] was > 100 µM and the TGI [63] was > 100 µM. The TGI [46] was > 100 µM, the TGI [47] was > 100 µM and the TGI [64] was > 100 µM. The TGI [49] was > 100 µM, the TGI [51] was > 100 µM and the TGI [52] was > 100 µM. The TGI [53] was > 100 µM, the TGI [54] was > 100 µM and the TGI [55] was > 100 µM.
With `COC(=O)[C@@H](C)[C@H]1CC[C@@](C)(CCC2=C(C)CC3C=C(C)CCC3C2(C)C)OO1` (stereo partly specified) the TGI [1] was 0.263 µM, the TGI [2] was 3.19 µM and the TGI [3] was 3.12 µM. The TGI [4] was 2.87 µM, the TGI [5] was 2.71 µM and the TGI [6] was 0.39 µM. The TGI [7] was 4.38 µM, the TGI [8] was 2.54 µM and the TGI [9] was 4.04 µM. For the same compound, the TGI [56] was 4.43 µM, the TGI [10] was 3.03 µM and the TGI [11] was 2.65 µM. The TGI [12] was 3.81 µM, the TGI [13] was 2.82 µM and the TGI [14] was 0.449 µM. For the same compound, the TGI [16] was 3.72 µM, the TGI [18] was 2.96 µM and the TGI [19] was 3.06 µM. The TGI [21] was 2.9 µM, the TGI [22] was 3.13 µM and the TGI [24] was 2.2 µM. It also gave a TGI [25] of 3.13 µM, a TGI [26] of 3.75 µM and a TGI [27] of 3.96 µM. For the same compound, the TGI [28] was 2.75 µM, the TGI [29] was 4.13 µM and the TGI [30] was 3.49 µM. The TGI [31] was 3.57 µM, the TGI [32] was 0.331 µM and the TGI [33] was 3.42 µM. It also gave a TGI [59] of 3 µM, a TGI [34] of 3.27 µM and a TGI [35] of 4.09 µM. It also gave a TGI [36] of 5.98 µM, a TGI [37] of 2.84 µM and a TGI [38] of 4.63 µM. The TGI [39] was 3.76 µM, the TGI [40] was 3.2 µM and the TGI [41] was 3.27 µM. For the same compound, the TGI [62] was 3.32 µM, the TGI [42] was 3.22 µM and the TGI [43] was 2.87 µM. It also gave a TGI [44] of 3.87 µM, a TGI [45] of 2.36 µM and a TGI [46] of 3.16 µM. For the same compound, the TGI [47] was 2.94 µM, the TGI [64] was 4.76 µM and the TGI [48] was 3.87 µM. It also gave a TGI [49] of 1.01 µM, a TGI [50] of 3.31 µM and a TGI [51] of 2.73 µM. For the same compound, the TGI [52] was 7.61 µM, the TGI [53] was 3.86 µM and the TGI [54] was 2.76 µM.
